Results: the NIST ThermoML archive (doi:10.1021/je101012n)

Assay: mn = molality of the nth substance listed, in mol/kg
Conditions: 101 kPa, Liquid, Alternating current cell with electrodes

[Na+].[OH-] [sodium hydroxide] + O
electrical conductivity [S/m]
Conditions	278.15 K	283.15 K	298.15 K	308.15 K	318.15 K	343.15 K	363.15 K
m1 = 0.001	0.01671	0.01919	0.02459	0.02833	0.03327	0.04401	0.05213
m1 = 0.01	0.1596	0.1793	0.2414	0.2784	0.3201	0.4294	0.5115
m1 = 0.1	1.498	1.677	2.251	2.635	3.026	4.062	4.861
m1 = 0.5	6.639	7.417	9.875	11.59	13.25	17.72	20.63
m1 = 1	12.13	13.5	18.01	21.19	24.38	32.74	36.66

O=S(=O)([O-])[O-].[Cs+].[Cs+] [cesium sulfate] + O
electrical conductivity [S/m]
Conditions	278.15 K	283.15 K	298.15 K	308.15 K	318.15 K	343.15 K	363.15 K
m1 = 0.000101	0.001962	0.002237	0.003069	0.003625	0.004233	0.006348	0.0078
m1 = 0.00105	0.01932	0.02195	0.0306	0.03666	0.04304	0.06181	0.07641
m1 = 0.01021	0.1676	0.1906	0.2654	0.3173	0.3716	0.5216	0.6438
m1 = 0.1047	1.358	1.539	2.124	2.529	2.958	4.094	5.022
m1 = 0.1836	2.24	2.528	3.468	4.119	4.792	6.59	8
m1 = 0.3588	4.083	4.58	6.204	7.32	8.463	11.58	13.73

O=S(=O)([O-])[O-].[Na+].[Na+] [sodium sulfate] + O
electrical conductivity [S/m]
Conditions	278.15 K	283.15 K	298.15 K	308.15 K	318.15 K	343.15 K	363.15 K
m1 = 0.0001	0.001565	0.001807	0.002576	0.003181	0.003786	0.005401	0.00676
m1 = 0.001	0.01463	0.0168	0.02415	0.0292	0.03475	0.05015	0.0633
m1 = 0.01	0.1296	0.1488	0.2128	0.2575	0.3049	0.4381	0.5474
m1 = 0.1001	1	1.148	1.639	1.986	2.347	3.347	4.17
m1 = 0.1989	1.756	2.022	2.882	3.508	4.153	5.946	7.43
m1 = 0.4999	3.383	3.854	5.47	6.708	7.954	11.39	13.7

[Cl-].[K+] [potassium chloride] + O
electrical conductivity [S/m]
Conditions	278.15 K	283.15 K	298.15 K	308.15 K	318.15 K	343.15 K	363.15 K
m1 = 0.0001	0.0009464	0.001074	0.001487	0.001786	0.002105	0.002969	0.003716
m1 = 0.001	0.009198	0.0105	0.01471	0.01773	0.0207	0.02897	0.03587
m1 = 0.01	0.0891	0.1014	0.1408	0.1688	0.1977	0.2761	0.3426
m1 = 0.1	0.8184	0.9292	1.283	1.532	1.788	2.471	3.086
m1 = 0.5	3.875	4.375	5.92	6.981	8.107	11.23	13.48
m1 = 1	7.203	8.084	10.86	12.8	14.77	20.25	24.58

O=[N+]([O-])[O-].[K+] [potassium nitrate] + O
electrical conductivity [S/m]
Conditions	278.15 K	283.15 K	298.15 K	308.15 K	318.15 K	343.15 K	363.15 K
m1 = 0.000103	0.0009389	0.001073	0.001486	0.001798	0.002048	0.00283	0.00348
m1 = 0.000997	0.008901	0.01015	0.01411	0.01701	0.01956	0.02717	0.0338
m1 = 0.01026	0.0874	0.09971	0.1385	0.1664	0.1919	0.2666	0.3287
m1 = 0.09972	0.7601	0.8658	1.201	1.44	1.669	2.342	2.875
m1 = 0.4093	2.815	3.211	4.407	5.264	6.162	8.59	10.45
m1 = 0.7941	4.806	5.474	7.428	8.831	10.38	14.63	16.97
